Reference: ChEMBL document CHEMBL4680138, “A 18β-glycyrrhetinic acid conjugate with Vorinostat degrades HDAC3 and HDAC6 with improved antitumor effects” (Eur J Med Chem, 2020)
The source made the active and inactive calls. The calls are words filed in the database; no cut-off is given here.

Tests used:
HL-60 [1] = experiment: Induction of apoptosis in human HL-60 cells assessed as early apoptotic cells at 0.5 uM measured after 24 hrs by Annexin-V/FITC and propidium iodide staining based flow cytometry (reference value: 2.46 %); type: functional
Histone deacetylase 2 = Histone deacetylase 2 (Homo sapiens, UniProt Q92769); experiment: Inhibition of recombinant human HDAC2 expressed in baculovirus infected Sf9 cells using Boc-Lys(Ac)-AMC as substrate preincubated for 15 mins followed by substrate addition and measured after 60 mins by fluorescence based assay; type: cell-based
Sequence of Histone deacetylase 2 (Q92769 whole entry): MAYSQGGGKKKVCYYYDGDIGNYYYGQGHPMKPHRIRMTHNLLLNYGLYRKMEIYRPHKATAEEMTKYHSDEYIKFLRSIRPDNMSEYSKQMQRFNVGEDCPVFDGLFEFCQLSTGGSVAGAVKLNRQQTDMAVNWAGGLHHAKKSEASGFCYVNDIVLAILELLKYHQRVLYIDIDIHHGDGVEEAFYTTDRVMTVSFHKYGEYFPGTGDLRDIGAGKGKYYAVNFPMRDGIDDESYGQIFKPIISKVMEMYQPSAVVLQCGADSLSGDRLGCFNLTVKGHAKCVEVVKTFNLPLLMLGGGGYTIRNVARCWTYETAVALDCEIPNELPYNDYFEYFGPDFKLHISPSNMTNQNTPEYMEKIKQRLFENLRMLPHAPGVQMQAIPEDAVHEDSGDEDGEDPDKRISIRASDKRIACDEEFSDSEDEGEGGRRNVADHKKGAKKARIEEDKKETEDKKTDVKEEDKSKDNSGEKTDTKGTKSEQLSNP

HL-60 [2] = experiment: Induction of apoptosis in human HL-60 cells assessed as increase in accumulation at sub-G1 phase at 2 uM after 24 hrs by propidium iodide staining based flow cytometry (reference value: 2.72 %); type: functional
HL-60 [3] = experiment: Induction of apoptosis in human HL-60 cells assessed as live cells at 0.5 uM measured after 24 hrs by Annexin-V/FITC and propidium iodide staining based flow cytometry (reference value: 89.29 %); type: functional
HL-60 [4] = experiment: Induction of apoptosis in human HL-60 cells assessed as early apoptotic cells at 2 uM measured after 24 hrs by Annexin-V/FITC and propidium iodide staining based flow cytometry (reference value: 2.46 %); type: functional
Histone deacetylase 1 = Histone deacetylase 1 (Homo sapiens, UniProt Q13547); experiment: Inhibition of recombinant human C-terminal FLAG/His-tagged HDAC1 (1 to 482 residues) expressed in Sf9 insect cells using Boc-Lys (Ac)-AMC as substrate preincubated for 15 mins followed by substrate addition and measured after 60 mins by fluorescence based assay
Sequence of Histone deacetylase 1 (Q13547 whole entry, the tested form may be a part): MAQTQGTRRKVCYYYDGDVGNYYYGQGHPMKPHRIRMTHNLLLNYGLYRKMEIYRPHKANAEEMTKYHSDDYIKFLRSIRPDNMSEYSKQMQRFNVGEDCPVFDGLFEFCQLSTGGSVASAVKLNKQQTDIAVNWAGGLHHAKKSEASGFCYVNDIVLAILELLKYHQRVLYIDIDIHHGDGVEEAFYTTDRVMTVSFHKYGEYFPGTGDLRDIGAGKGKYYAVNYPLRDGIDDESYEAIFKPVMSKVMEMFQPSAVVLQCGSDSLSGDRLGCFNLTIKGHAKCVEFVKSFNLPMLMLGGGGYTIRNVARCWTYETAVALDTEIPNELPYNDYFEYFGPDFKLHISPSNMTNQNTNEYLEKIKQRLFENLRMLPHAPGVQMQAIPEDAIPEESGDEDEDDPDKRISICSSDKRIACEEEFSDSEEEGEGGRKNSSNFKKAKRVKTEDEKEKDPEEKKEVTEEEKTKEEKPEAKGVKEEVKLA

HL-60 [5] = experiment: Induction of apoptosis in human HL-60 cells assessed as late apoptotic cells at 2 uM measured after 24 hrs by Annexin-V/FITC and propidium iodide staining based flow cytometry (reference value: 7.24 %); type: functional
[6] = Half life in Sprague-Dawley rat at 5 mg/kg, iv measured up to 24 hrs by LC-MS/MS analysis; type: ADME, organism-based; settings: in vivo
HL-60 [7] = experiment: Upregulation of acetylated alpha-tubulin level in human HL-60 cells at 2 uM measured after 12 hrs by Western blot analysis; type: functional, cell-based
HL-60 [8] = experiment: Induction of apoptosis in human HL-60 cells assessed as live cells at 1 uM measured after 24 hrs by Annexin-V/FITC and propidium iodide staining based flow cytometry (reference value: 89.29 %); type: functional
HL-60 [9] = experiment: Upregulation of acetylated H3 level in human HL-60 cells at 2 uM measured after 12 hrs by Western blot analysis; type: functional, cell-based
HL-60 [10] = experiment: Induction of apoptosis in human HL-60 cells assessed as necrotic cells at 0.5 uM measured after 24 hrs by Annexin-V/FITC and propidium iodide staining based flow cytometry (reference value: 1.01 %); type: functional
PC-3 = experiment: Cytotoxicity against human PC-3 cells assessed as reduction in cell viability after 96 hrs by MTT assay; type: functional, cell-based; settings: PC-3, 96 h
HL-60 [11] = experiment: Induction of apoptosis in human HL-60 cells assessed as increase in accumulation at sub-G1 phase at 1 uM after 24 hrs by propidium iodide staining based flow cytometry (reference value: 2.72 %); type: functional
HL-60 [12] = experiment: Upregulation of PARP cleavage in human HL-60 cells at 2 uM measured after 12 hrs by Western blot analysis; type: functional, cell-based
HL-60 [13] = experiment: Induction of apoptosis in human HL-60 cells assessed as late apoptotic cells at 0.5 uM measured after 24 hrs by Annexin-V/FITC and propidium iodide staining based flow cytometry (reference value: 7.24 %); type: functional
HL-60 [14] = experiment: Induction of apoptosis in human HL-60 cells assessed as late apoptotic cells at 1 uM measured after 24 hrs by Annexin-V/FITC and propidium iodide staining based flow cytometry (reference value: 7.24 %); type: functional
HL-60 [15] = experiment: Induction of apoptosis in human HL-60 cells assessed as necrotic cells at 2 uM measured after 24 hrs by Annexin-V/FITC and propidium iodide staining based flow cytometry (reference value: 1.01 %); type: functional
HL-60 [16] = experiment: Induction of apoptosis in human HL-60 cells assessed as increase in accumulation at sub-G1 phase at 0.5 uM after 24 hrs by propidium iodide staining based flow cytometry (reference value: 2.72 %); type: functional
[17] = Cmax in Sprague-Dawley rat at 5 mg/kg, iv measured up to 24 hrs by LC-MS/MS analysis; type: ADME, organism-based; set-up: route intravenous, dose 5 mg/kg, time <=24; settings: in vivo
HL-60 [18] = experiment: Induction of apoptosis in human HL-60 cells assessed as early apoptotic cells at 1 uM measured after 24 hrs by Annexin-V/FITC and propidium iodide staining based flow cytometry (reference value: 2.46 %); type: functional
[19] = AUC (0 to infinity) in Sprague-Dawley rat at 5 mg/kg, iv measured up to 24 hrs by LC-MS/MS analysis; type: ADME, organism-based; set-up: route intravenous, dose 5 mg/kg, time <=24; settings: in vivo
[20] = target: T1, Protein deacetylase HDAC6 (Homo sapiens, UniProt Q9UBN7); experiment: Inhibition of recombinant C-terminal FLAG-tagged full length human HDAC6 expressed in baculovirus infected Sf9 cells using Boc-Lys(Ac)-AMC as substrate preincubated for 15 mins followed by substrate addition and measured after 60 mins by fluorescence based assay
T1 sequence (Q9UBN7 whole entry): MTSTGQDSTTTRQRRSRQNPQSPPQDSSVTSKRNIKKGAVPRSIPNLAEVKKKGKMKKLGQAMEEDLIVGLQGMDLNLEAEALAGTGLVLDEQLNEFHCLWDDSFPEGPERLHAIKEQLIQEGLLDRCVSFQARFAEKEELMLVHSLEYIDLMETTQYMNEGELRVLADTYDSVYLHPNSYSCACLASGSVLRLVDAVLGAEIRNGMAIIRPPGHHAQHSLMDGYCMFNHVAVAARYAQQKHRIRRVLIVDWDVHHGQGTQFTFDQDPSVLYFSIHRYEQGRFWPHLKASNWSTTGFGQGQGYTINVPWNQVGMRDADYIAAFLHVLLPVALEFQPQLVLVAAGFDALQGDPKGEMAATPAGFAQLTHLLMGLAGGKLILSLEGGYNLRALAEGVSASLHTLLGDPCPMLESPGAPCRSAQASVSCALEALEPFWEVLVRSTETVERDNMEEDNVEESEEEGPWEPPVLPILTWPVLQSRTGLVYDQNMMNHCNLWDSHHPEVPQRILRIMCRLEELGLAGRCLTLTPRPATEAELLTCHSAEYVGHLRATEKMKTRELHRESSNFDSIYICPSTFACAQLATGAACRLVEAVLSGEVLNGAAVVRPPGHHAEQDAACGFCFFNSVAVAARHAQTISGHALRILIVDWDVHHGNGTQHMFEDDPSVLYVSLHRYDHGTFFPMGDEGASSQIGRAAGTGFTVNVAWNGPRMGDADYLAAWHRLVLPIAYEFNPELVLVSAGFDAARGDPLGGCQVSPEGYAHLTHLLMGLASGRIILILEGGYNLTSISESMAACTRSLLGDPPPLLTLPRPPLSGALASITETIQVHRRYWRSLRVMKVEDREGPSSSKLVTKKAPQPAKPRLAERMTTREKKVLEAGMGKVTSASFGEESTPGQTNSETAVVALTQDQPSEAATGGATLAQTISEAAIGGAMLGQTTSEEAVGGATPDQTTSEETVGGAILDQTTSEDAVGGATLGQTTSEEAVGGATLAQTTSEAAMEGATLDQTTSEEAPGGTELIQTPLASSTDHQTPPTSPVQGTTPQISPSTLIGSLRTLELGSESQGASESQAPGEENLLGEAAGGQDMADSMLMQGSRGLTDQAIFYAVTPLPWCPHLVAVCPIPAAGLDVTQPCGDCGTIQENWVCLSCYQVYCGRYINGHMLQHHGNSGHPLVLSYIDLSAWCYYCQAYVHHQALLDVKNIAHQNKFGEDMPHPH

HL-60 [21] = experiment: Induction of apoptosis in human HL-60 cells assessed as live cells at 2 uM measured after 24 hrs by Annexin-V/FITC and propidium iodide staining based flow cytometry (reference value: 89.29 %); type: functional
HL-60 [22] = experiment: Antiproliferative activity against human HL-60 cells assessed as cell growth inhibition after 72 hrs by trypan blue staining based cell counting assay; type: functional; settings: HL-60, 72 h
HL-60 [23] = experiment: Induction of apoptosis in human HL-60 cells assessed as necrotic cells at 1 uM measured after 24 hrs by Annexin-V/FITC and propidium iodide staining based flow cytometry (reference value: 1.01 %); type: functional
[24] = target: Histone deacetylase 3/Nuclear receptor corepressor 2 (HDAC3/NCoR2) (Homo sapiens, UniProt O15379); experiment: Inhibition of C-terminal His-tagged recombinant human HDAC3 (1 to 428 residues)/N-terminal GST-tagged recombinant human NCoR2 (395 to 489 residues) co-expressed in baculovirus infected Sf9 cells using Boc-Lys(Ac)-AMC as substrate preincubated for 15 mins followed by substrate addition and measured after 60 mins by fluorescence based assay
Sequence of Histone deacetylase 3/Nuclear receptor corepressor 2 (HDAC3/NCoR2) (O15379 whole entry, the tested form may be a part): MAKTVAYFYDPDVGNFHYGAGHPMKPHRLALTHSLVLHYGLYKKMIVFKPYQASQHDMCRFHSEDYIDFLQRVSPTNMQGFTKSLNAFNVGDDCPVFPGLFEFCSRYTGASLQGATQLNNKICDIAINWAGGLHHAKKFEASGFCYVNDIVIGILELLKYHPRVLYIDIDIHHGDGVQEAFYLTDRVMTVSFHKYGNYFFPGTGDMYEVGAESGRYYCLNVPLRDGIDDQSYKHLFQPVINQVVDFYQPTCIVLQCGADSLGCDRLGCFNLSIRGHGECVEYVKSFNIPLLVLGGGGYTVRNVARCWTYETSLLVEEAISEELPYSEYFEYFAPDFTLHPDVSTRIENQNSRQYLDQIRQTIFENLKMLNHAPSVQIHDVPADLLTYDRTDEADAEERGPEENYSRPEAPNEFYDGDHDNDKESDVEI
Sequence of Histone deacetylase 3/Nuclear receptor corepressor 2 (HDAC3/NCoR2) (Q9Y618 whole entry, further chain, the tested form may be a part): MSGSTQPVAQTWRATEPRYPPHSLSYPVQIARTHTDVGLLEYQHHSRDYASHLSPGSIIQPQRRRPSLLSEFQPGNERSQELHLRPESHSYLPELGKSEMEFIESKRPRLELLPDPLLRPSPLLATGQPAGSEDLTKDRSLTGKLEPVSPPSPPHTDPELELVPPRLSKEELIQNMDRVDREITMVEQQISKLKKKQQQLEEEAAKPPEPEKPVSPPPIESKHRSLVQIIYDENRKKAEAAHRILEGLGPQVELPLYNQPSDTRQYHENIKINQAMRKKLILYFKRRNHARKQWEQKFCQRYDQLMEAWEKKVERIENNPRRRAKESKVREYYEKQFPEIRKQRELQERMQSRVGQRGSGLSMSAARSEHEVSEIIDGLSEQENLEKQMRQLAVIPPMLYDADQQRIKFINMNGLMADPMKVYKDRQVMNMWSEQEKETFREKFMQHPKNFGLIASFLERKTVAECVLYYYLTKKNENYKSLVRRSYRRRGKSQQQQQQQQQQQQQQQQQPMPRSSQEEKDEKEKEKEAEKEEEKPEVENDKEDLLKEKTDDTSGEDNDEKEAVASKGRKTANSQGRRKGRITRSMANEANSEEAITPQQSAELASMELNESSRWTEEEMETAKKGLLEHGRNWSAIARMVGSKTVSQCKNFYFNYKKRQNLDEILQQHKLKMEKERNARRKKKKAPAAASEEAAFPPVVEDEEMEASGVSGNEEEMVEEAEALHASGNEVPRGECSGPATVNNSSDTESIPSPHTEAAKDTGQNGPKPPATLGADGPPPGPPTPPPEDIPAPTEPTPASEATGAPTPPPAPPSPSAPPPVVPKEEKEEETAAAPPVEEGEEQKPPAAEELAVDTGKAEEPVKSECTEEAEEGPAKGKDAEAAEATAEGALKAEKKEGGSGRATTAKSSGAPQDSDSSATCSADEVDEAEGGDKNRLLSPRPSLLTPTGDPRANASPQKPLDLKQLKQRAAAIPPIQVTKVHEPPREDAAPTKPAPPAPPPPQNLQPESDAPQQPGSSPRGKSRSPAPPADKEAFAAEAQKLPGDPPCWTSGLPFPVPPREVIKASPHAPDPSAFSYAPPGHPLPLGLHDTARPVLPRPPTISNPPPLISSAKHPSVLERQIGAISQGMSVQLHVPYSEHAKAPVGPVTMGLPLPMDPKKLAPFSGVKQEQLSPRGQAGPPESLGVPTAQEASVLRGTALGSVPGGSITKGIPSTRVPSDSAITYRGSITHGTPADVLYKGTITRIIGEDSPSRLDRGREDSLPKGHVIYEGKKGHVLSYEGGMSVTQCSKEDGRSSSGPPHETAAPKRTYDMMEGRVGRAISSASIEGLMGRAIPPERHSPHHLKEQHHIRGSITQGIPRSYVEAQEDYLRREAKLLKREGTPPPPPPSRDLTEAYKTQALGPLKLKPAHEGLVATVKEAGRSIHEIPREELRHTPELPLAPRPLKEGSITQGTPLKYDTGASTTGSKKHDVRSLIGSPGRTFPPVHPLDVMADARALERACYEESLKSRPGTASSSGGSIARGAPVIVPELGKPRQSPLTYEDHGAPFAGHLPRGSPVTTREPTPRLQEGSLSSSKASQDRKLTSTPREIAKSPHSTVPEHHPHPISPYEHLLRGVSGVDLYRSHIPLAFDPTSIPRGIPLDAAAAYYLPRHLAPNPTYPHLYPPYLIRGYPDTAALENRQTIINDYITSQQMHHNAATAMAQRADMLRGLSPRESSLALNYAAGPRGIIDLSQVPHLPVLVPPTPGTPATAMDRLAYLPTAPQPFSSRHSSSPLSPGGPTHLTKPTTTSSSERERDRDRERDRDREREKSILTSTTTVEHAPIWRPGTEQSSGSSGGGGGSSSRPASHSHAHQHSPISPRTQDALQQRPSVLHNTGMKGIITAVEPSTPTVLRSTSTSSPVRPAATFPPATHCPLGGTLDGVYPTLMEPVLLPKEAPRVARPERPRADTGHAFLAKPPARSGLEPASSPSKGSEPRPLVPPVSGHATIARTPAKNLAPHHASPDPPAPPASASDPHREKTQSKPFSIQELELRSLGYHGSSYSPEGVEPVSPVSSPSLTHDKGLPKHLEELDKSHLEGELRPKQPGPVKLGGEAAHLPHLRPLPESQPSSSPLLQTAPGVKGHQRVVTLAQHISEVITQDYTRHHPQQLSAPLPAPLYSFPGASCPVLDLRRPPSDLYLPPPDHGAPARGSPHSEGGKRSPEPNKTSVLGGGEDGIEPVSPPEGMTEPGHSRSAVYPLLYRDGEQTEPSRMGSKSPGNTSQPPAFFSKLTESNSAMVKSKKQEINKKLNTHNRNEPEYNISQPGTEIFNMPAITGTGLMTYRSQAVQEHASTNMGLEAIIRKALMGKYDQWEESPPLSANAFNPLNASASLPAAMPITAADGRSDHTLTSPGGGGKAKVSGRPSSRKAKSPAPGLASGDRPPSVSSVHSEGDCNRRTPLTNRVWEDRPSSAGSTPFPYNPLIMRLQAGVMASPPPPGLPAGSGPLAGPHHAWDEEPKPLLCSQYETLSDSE

CC1(C)C(=O)C(C#N)=C[C@]2(C)[C@H]3C(=O)C=C4[C@@H]5C[C@@](C)(C(=O)N6CCN(c7ccc(NC(=O)CCCCCCC(=O)NO)cc7)CC6)CC[C@]5(C)CC[C@@]4(C)[C@]3(C)CC[C@@H]12
Activity (HL-60 [1]): 2.92%
IC50 (Histone deacetylase 2): 4830 nM
Activity (HL-60 [2]): 76.29%
Activity (HL-60 [3]): 68.63%
Activity (HL-60 [4]): 2.51%
IC50 (Histone deacetylase 1): 2510 nM
Activity (HL-60 [5]): 65.55%
half-life [6]: 16.8 h
Activity (HL-60 [7]): Active
Activity (HL-60 [8]): 37.66%
Activity (HL-60 [9]): Active
Activity (HL-60 [10]): 3.91%
IC50 (PC-3): 470 nM
Activity (HL-60 [11]): 58.14%
Activity (HL-60 [12]): Active
Activity (HL-60 [13]): 24.55%
Activity (HL-60 [14]): 40.45%
Activity (HL-60 [15]): 8.05%
Activity (HL-60 [16]): 27.28%
Cmax [17]: 10800 ng/mL
Activity (HL-60 [18]): 1.17%
AUC(0-inf) [19]: 3780 ng·h/mL
IC50 [20]: 368 nM
Activity (HL-60 [21]): 23.9%
IC50 (HL-60 [22]): 370 nM
Activity (HL-60 [23]): 20.73%
IC50 [24]: 635 nM
